Measurements: patent publication US9753034B2, “Process for the identification of a compound which inhibits the binding of the first bromodomain of each of human BRD-2, BRD-3, and BRD-4” (GLAXOSMITHKLINE LLC, priority 2009, dated 2017)

Experiments:
[1] = molecular target: T1, Bromodomain BRD-2 (1-473) (Homo sapiens, UniProt P25440); assay: Fluorescence Anisotropy Binding Assay, BRD-2; details: displacement of fluorescent ligand (Reference compound K) 5 nM, BRD-2 75 nM; read-out: pIC50 in the BRD-2 assay (converted)
T1 construct: Recombinant Human Bromodomains (BRD-2 (1-473), BRD-3 (1-435) and BRD-4 (1-477)); six-His tag (N); made in house; host or cells: E. coli (pET15b vector)
Method: (§1) Fluorescence Anisotropy Binding Assay
(§2) All data was normalized to the mean of 16 high and 16 low control wells on each plate. A four parameter curve fit of the following form was then applied: y=a+((b−a)/(1+(10^x/10^c)^d)
(§3) Where ‘a’ is the minimum, ‘b’ is the Hill slope, ‘c’ is the pIC50 and ‘d’ is the maximum.
(§4) The His-tagged Bromodomain was extracted from E. coli cells using 0.1 mg/ml lysozyme and sonication. […] Further purification was completed by Superdex 200 prep grade size exclusion column. Purified protein was stored at −80 C in 20 mM HEPES pH 7.5 and 100 mM NaCl.
(§5) 10 μl of this reaction mixture was added using a micro multidrop to wells containing 100 nl of various concentrations of test compound or DMSO vehicle (1% final) in Greiner 384 well Black low volume microtitre plate and equilibrated in dark 60 mins at room temperature.

[2] = molecular target: T2, Bromodomain BRD-3 (1-435) (Homo sapiens, UniProt Q15059); assay: Fluorescence Anisotropy Binding Assay, BRD-3; details: displacement of fluorescent ligand (Reference compound K) 5 nM, BRD-3 75 nM; read-out: pIC50 in the BRD-3 assay (converted)
T2 construct: Recombinant Human Bromodomains (BRD-2 (1-473), BRD-3 (1-435) and BRD-4 (1-477)); six-His tag (N); made in house; host or cells: E. coli (pET15b vector)
Method: as §1, §2, §3, §4, §5

[3] = molecular target: Bromodomain BRD-4 (1-477) (Homo sapiens, UniProt O60885); assay: biochemical; details: pIC50 in the BRD-4 assay, displacement of fluorescent ligand (Reference compound K) 5 nM, BRD-4 75 nM
Method: as §1, §2, §3, §4, §5

T1 sequence (P25440 1-473): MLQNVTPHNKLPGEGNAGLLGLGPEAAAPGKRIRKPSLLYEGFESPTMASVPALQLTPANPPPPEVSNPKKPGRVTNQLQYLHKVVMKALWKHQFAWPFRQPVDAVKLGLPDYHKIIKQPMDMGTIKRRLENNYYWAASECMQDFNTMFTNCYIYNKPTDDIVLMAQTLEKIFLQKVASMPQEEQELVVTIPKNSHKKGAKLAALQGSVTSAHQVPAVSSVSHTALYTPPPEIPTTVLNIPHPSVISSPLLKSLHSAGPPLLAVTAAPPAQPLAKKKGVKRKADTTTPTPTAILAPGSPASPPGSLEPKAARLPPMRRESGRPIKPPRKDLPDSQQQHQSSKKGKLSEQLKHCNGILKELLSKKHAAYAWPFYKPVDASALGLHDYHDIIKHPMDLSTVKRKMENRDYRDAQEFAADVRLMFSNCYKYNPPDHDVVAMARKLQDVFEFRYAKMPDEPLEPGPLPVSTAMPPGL
T2 sequence (Q15059 1-435): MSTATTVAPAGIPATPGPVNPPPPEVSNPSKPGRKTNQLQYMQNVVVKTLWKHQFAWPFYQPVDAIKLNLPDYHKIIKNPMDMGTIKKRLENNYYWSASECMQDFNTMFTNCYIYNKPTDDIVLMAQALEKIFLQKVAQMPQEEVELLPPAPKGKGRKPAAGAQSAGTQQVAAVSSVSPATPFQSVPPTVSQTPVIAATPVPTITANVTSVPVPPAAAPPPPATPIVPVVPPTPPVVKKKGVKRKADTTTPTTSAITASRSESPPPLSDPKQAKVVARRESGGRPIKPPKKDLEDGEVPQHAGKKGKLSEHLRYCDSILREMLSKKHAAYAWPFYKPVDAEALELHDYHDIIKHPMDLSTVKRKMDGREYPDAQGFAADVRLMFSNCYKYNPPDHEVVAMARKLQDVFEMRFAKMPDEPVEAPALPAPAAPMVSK

IC50 [1] [nM] | IC50 [2] [nM] | IC50 [3] [nM] | Compound
≤ 316 | ≤ 316 |  | CC(=O)N1c2ccc(-c3ccc(C(=O)O)cc3)cc2[C@H](Nc2ccc(Cl)cc2)C[C@@H]1C [Compound (II), 4-{(2S,4R)-1-acetyl-4-[(4-chlorophenyl)amino]-2-methyl-1,2,3,4-tetrahydro-6-quinolinyl}benzoic acid]
≤ 1000 | ≤ 1000 | ≤ 1000 | CNCc1ccc(-c2ccc3c(c2)[C@H](NC(=O)OC(C)C)C[C@H](C)N3C(C)=O)cc1 [Compound (IV), 1-methylethyl ((2S,4R)-1-acetyl-2-methyl-6-{4-[(methylamino)methyl]pheny}-1,2,3,4-tetrahydro-4-quinolinyl)carbamate]
